# Laboratory results reported in ChEMBL document CHEMBL4665663, “Anti-atherosclerosis effect of HS donors based on nicotinic acid and chlorfibrate structures” (Bioorg Med Chem, 2019).
# Activity calls are given as the source filed them. The calls are words filed in the database; no cut-off is given here.
# Columns and labels:
# [1] = Prodrug release in phosphate buffer containing L-cysteine assessed as H2S release by measuring H2S releasing half-life at 60 uM by methylene blue method; type: ADME
# [2] = test system: H9c2; assay: Cytotoxicity against rat H9c2 cells assessed as reduction in cell viability after 48 hrs by MTT assay; type: cell-based; conditions: H9c2, 48 h
# [3] = test system: HUVEC; assay: Cytotoxicity against human HUVEC cells assessed as reduction in cell viability after 48 hrs by MTT assay; type: cell-based
# [4] = test system: RAW264.7; assay: Cytotoxicity against mouse RAW264.7 cells assessed as reduction in cell viability after 48 hrs by MTT assay; type: cell-based; conditions: RAW264.7, 48 h
# [5] = test system: WI-38; assay: Cytotoxicity against human WI38 cells assessed as reduction in cell viability after 48 hrs by MTT assay; type: cell-based; conditions: WI-38, 48 h
# [6] = test system: HUVEC; assay: Cytoprotective activity against ox-LDL induced cell damage in human HUVEC cells assessed as increase in cell viability at 50 uM preincubated for 10 mins followed by ox-LDL stimulation measured after 24 hrs by MTT assay; type: functional, cell-based
# [7] = test system: HUVEC; assay: Cytotoxicity against human HUVEC cells assessed as reduction in cell viability at 10 to 100 uM by MTT assay; type: cell-based; conditions: dose 10-100 µM
# [8] = test system: HUVEC; assay: Cytoprotective activity against ox-LDL induced cell damage in human HUVEC cells assessed as cell viability at 100 uM preincubated for 10 mins followed by ox-LDL stimulation measured after 24 hrs by MTT assay (reference value: 73.1%); type: functional; conditions: read-out: Activity
# [9] = test system: HUVEC; assay: Anti-atherosclerotic activity against ox-LDL induced cell damage in human HUVEC cells assessed as reduction in nuclear pyknosis and apoptotic bodies formation preincubated for 10 mins followed by ox-LDL stimulation and measured after 24 hrs by Hoechst 33342 staining based fluorescence microscopy; type: functional
# [10] = test system: HUVEC; assay: Anti-atherosclerotic activity against ox-LDL induced cell damage in human HUVEC cells assessed as reduction in late apoptotic and death cells preincubated for 10 mins followed by ox-LDL stimulation and measured after 24 hrs by PI staining based fluorescence microscopic analysis; type: functional
# [11] = test system: HUVEC; assay: Anti-atherosclerotic activity against ox-LDL induced cell damage in human HUVEC cells assessed as reduction in early apoptotic cells by measuring increase in mitochondrial membrane potential preincubated for 10 mins followed by ox-LDL stimulation and measured after 24 hrs by JC-1 staining based fluorescence microscopic analysis; type: functional
# [12] = test system: RAW264.7; assay: Antioxidant activity in mouse RAW264.7 cells assessed as reduction in ox-LDL-induced oxidative stress by measuring increase in SOD level at 50 uM preincubated for 10 mins followed by ox-LDL stimulation and measured after 24 hrs relative to control; type: functional; parameters: scale not given: the % may be the effect or the level left
# [13] = test system: HUVEC; assay: Anti-atherosclerotic activity against ox-LDL induced apoptosis in human HUVEC cells assessed as reduction in Bax expression at 10 to 50 uM preincubated for 10 mins followed by ox-LDL stimulation and measured after 24 hrs by ELISA; type: functional, cell-based; conditions: dose microM 10-50, time 10.0 min
# [14] = test system: HUVEC; assay: Anti-atherosclerotic activity against ox-LDL induced apoptosis in human HUVEC cells assessed as reduction in caspase-3 expression at 10 to 50 uM preincubated for 10 mins followed by ox-LDL stimulation and measured after 24 hrs by ELISA; type: functional, cell-based; conditions: dose microM 10-50, time 10.0 min
# [15] = test system: HUVEC; assay: Anti-atherosclerotic activity against ox-LDL induced apoptosis in human HUVEC cells assessed as increase in bcl-2 expression at 50 uM preincubated for 10 mins followed by ox-LDL stimulation and measured after 24 hrs by ELISA; type: functional
# [16] = test system: RAW264.7; assay: Inhibition of macrophage foam cell formation in mouse RAW264.7 cells assessed as reduction in ox-LDL induced red lipid droplets formation preincubated for 10 mins followed by ox-LDL stimulation and measured after 24 hrs by oil red O staining based inverted microscopy analysis; type: functional; conditions: dose microM 10-50, time 10.0 min
# [17] = test system: RAW264.7; assay: Inhibition of macrophage foam cell formation in mouse RAW264.7 cells assessed as reduction in ox-LDL induced red lipid droplets formation at 50 uM preincubated for 10 mins followed by ox-LDL stimulation and measured after 24 hrs by oil red O staining based inverted microscopy analysis; type: functional
# [18] = test system: RAW264.7; assay: Anti-atherosclerotic activity in mouse RAW264.7 cells assessed as decrease in ox-LDL induced intracellular lipid accumulation by measuring reduction in CE/TC ratio at 50 uM preincubated for 10 mins followed by ox-LDL stimulation and measured after 24 hrs by colorimetric method relative to control; type: functional; conditions: RAW264.7, 10 min
# [19] = test system: RAW264.7; assay: Antioxidant activity in mouse RAW264.7 cells assessed as reduction in ox-LDL induced ROS accumulation at 10 to 50 uM preincubated for 10 mins followed by ox-LDL stimulation and measured after 24 hrs by DCFH-DA staining based fluorescence microscopic analysis; type: functional, cell-based; conditions: dose microM 10-50, time 10.0 min
# [20] = test system: RAW264.7; assay: Antioxidant activity in mouse RAW264.7 cells assessed as reduction in ox-LDL induced oxidative stress by measuring decrease in MDA level at 50 uM preincubated for 10 mins followed by ox-LDL stimulation and measured after 24 hrs relative to control; type: functional; conditions: RAW264.7, 10 min
# [21] = test system: RAW264.7; assay: Anti-inflammatory activity in mouse RAW264.7 cells assessed as decrease in ox-LDL induced inflammatory reaction by measuring decrease in TNF-alpha production preincubated for 10 mins followed by ox-LDL stimulation and measured after 24 hrs; type: functional, cell-based; conditions: dose microM 10-50, time 10.0 min
# [22] = test system: RAW264.7; assay: Anti-inflammatory activity in mouse RAW264.7 cells assessed as decrease in ox-LDL induced inflammatory reaction by measuring increase in IL-10 production preincubated for 10 mins followed by ox-LDL stimulation and measured after 24 hrs; type: functional, cell-based; conditions: dose microM 10-50, time 10.0 min
# [23] = test system: RAW264.7; assay: Anti-atherosclerotic activity in mouse RAW264.7 cells assessed as decrease in ox-LDL induced PI3K protein expression at 10 to 50 uM preincubated for 10 mins followed by ox-LDL stimulation and measured after 24 hrs by Western blot analysis; type: functional, cell-based; conditions: dose microM 10-50, time 10.0 min
# [24] = test system: RAW264.7; assay: Anti-atherosclerotic activity in mouse RAW264.7 cells assessed as decrease in ox-LDL induced AKT protein expression at 10 to 50 uM preincubated for 10 mins followed by ox-LDL stimulation and measured after 24 hrs by Western blot analysis; type: functional, cell-based; conditions: dose microM 10-50, time 10.0 min
# [25] = test system: RAW264.7; assay: Anti-atherosclerotic activity in mouse RAW264.7 cells assessed as decrease in ox-LDL induced NFkappaB protein expression at 10 to 50 uM preincubated for 10 mins followed by ox-LDL stimulation and measured after 24 hrs by Western blot analysis; type: functional, cell-based; conditions: dose microM 10-50, time 10.0 min
# [26] = test system: RAW264.7; assay: Anti-atherosclerotic activity in mouse RAW264.7 cells assessed as decrease in ox-LDL induced intracellular lipid accumulation by measuring reduction in total cholesterol level at 10 to 50 uM preincubated for 10 mins followed by ox-LDL stimulation and measured after 24 hrs by colorimetric method; type: functional, cell-based; conditions: dose microM 10-50, time 10.0 min
# [27] = test system: RAW264.7; assay: Anti-atherosclerotic activity in mouse RAW264.7 cells assessed as decrease in ox-LDL induced intracellular lipid accumulation by measuring reduction in free cholesterol level at 10 to 50 uM preincubated for 10 mins followed by ox-LDL stimulation and measured after 24 hrs by colorimetric method; type: functional, cell-based; conditions: dose microM 10-50, time 10.0 min
# [28] = test system: RAW264.7; assay: Antioxidant activity in mouse RAW264.7 cells assessed as reduction in ox-LDL induced ROS accumulation at 10 uM preincubated for 10 mins followed by ox-LDL stimulation and measured after 24 hrs by DCFH-DA staining based fluorescence microscopic analysis; type: functional, cell-based
# [29] = test system: RAW264.7; assay: Antioxidant activity in mouse RAW264.7 cells assessed as reduction in ox-LDL induced oxidative stress by measuring decrease in MDA level at 10 to 50 uM preincubated for 10 mins followed by ox-LDL stimulation and measured after 24 hrs; type: functional, cell-based; conditions: dose microM 10-50, time 10.0 min
# [30] = test system: RAW264.7; assay: Antioxidant activity in mouse RAW264.7 cells assessed as reduction in ox-LDL induced oxidative stress by measuring increase in SOD level at 10 to 50 uM preincubated for 10 mins followed by ox-LDL stimulation and measured after 24 hrs; type: functional, cell-based; conditions: dose microM 10-50, time 10.0 min
# [31] = test system: RAW264.7; assay: Anti-inflammatory activity in mouse RAW264.7 cells assessed as decrease in ox-LDL induced inflammatory reaction by measuring decrease in TNF-alpha production at 10 to 50 uM preincubated for 10 mins followed by ox-LDL stimulation and measured after 24 hrs; type: functional, cell-based; conditions: dose microM 10-50, time 10.0 min
# [32] = test system: RAW264.7; assay: Anti-inflammatory activity in mouse RAW264.7 cells assessed as decrease in ox-LDL induced inflammatory reaction by measuring increase in IL-10 production at 10 to 50 uM preincubated for 10 mins followed by ox-LDL stimulation and measured after 24 hrs; type: functional, cell-based; conditions: dose microM 10-50, time 10.0 min
# [33] = test system: RAW264.7; assay: Inhibition of macrophage foam cell formation in mouse RAW264.7 cells assessed as reduction in ox-LDL induced red lipid droplets formation at 10 uM preincubated for 10 mins followed by ox-LDL stimulation and measured after 24 hrs by oil red O staining based inverted microscopy analysis; type: functional
# [34] = test system: HUVEC; assay: Cytoprotective activity against ox-LDL induced cell damage in human HUVEC cells assessed as increase in cell viability at 50 to 100 uM preincubated for 10 mins followed by ox-LDL stimulation measured after 24 hrs by MTT assay; type: functional, cell-based; conditions: dose microM 50-100, time 10.0 min
smiles,measurement,setting,value
CC(C)(Oc1ccc(Cl)cc1)C(=O)Oc1ccc(-c2cc(=S)ss2)cc1,t1/2,[1],4.2 min
same,IC50,[2],675 µM
same,IC50,[3],616 µM
same,IC50,[4],> 800 µM
same,IC50,[5],764 µM
O=C(CCCCC1CCSS1)OCCCOC(=O)c1cccnc1 (configuration not stated),Activity,[6],Active
same,Activity,[7],Non-Toxic
same,t1/2,[1],15.3 min
same,IC50,[2],> 800 µM
same,IC50,[3],> 800 µM
same,IC50,[4],> 800 µM
same,IC50,[5],> 800 µM
same,viability at 100 µM,[8],85.9%
same,Activity,[9],Active
same,Activity,[10],Active
same,Activity,[11],Active
same,Activity,[12],48.3%
same,Activity,[13],Active
same,Activity,[14],Active
same,Activity,[15],32.7%
same,inhibition,[16],Dose-dependent effect
same,inhibition,[17],Active
same,inhibition at 50 µM,[18],32.4%
same,Activity,[19],Active
same,inhibition at 50 µM,[20],47%
same,Activity,[21],Dose-dependent effect
same,Activity,[22],Dose-dependent effect
same,Activity,[23],Active
same,Activity,[24],Active
same,Activity,[25],Active
same,Activity,[26],Active
same,Activity,[27],Active
CCOC(=O)C(C)(C)Oc1ccc(Cl)cc1,Activity,[26],Active
same,Activity,[27],Active
same,Activity,[28],inactive
same,Activity,[29],inactive
same,Activity,[30],inactive
same,Activity,[31],Active
same,Activity,[32],Active
same,inhibition,[33],Active
O=C(NCCOC(=S)Nc1ccc(F)cc1)c1cccnc1,t1/2,[1],1.5 min
same,IC50,[2],> 800 µM
same,IC50,[3],692 µM
same,IC50,[4],> 800 µM
same,IC50,[5],> 800 µM
O=C(NCCOC(=S)Nc1ccc([N+](=O)[O-])cc1Cl)c1cccnc1,Activity,[34],Active
same,Activity,[7],Non-Toxic
same,t1/2,[1],2.1 min
same,IC50,[2],> 800 µM
same,IC50,[3],701 µM
same,IC50,[4],> 800 µM
same,IC50,[5],> 800 µM
O=C(Oc1ccc(-c2cc(=S)ss2)cc1)c1cccnc1,t1/2,[1],3.3 min
same,IC50,[2],627 µM
same,IC50,[3],562 µM
same,IC50,[4],> 800 µM
same,IC50,[5],734 µM
Cc1ccc(NC(=S)OCCNC(=O)C(C)(C)Oc2ccc(Cl)cc2)cc1,t1/2,[1],1 min
same,IC50,[2],771 µM
same,IC50,[3],661 µM
same,IC50,[4],> 800 µM
same,IC50,[5],> 800 µM
CC(C)(Oc1ccc(Cl)cc1)C(=O)NCCOC(=S)Nc1ccccc1,t1/2,[1],1.4 min
same,IC50,[2],> 800 µM
same,IC50,[3],791 µM
same,IC50,[4],> 800 µM
same,IC50,[5],> 800 µM
O=C(NCCOC(=S)Nc1ccccc1)c1cccnc1,t1/2,[1],1.2 min
same,IC50,[2],> 800 µM
same,IC50,[3],724 µM
same,IC50,[4],> 800 µM
same,IC50,[5],> 800 µM
NC(=S)c1ccc(OC(=O)c2cccnc2)cc1,t1/2,[1],2.1 min
same,IC50,[2],754 µM
same,IC50,[3],683 µM
same,IC50,[4],> 800 µM
same,IC50,[5],> 800 µM
